Values quoted from earlier work as cited in paper PMC10051811, “Plasma and Cerebrospinal Fluid Concentrations of Micafungin Administered at High Doses in Critically Ill Infants with Systemic Candidiasis: A Pooled Analysis of Two Studies” (Pharmaceuticals, 2023).
*1 amine or outer side, *2 acyl side, *3 side chain or, on linkers, in order; H or OH if unused. Where a SMILES comes first, the peptide text is derived from it. Bridges are numbered along the chain shown (N, C = ends). [ ]: non-standard residue; d: D form. The star is where a group is joined. hTyr(3S-OH,4S-OH,3'-OSO3H) = N[C@H](C(=O)O)[C@H](O)[C@@H](O)c1ccc(O)c(OS(=O)(=O)O)c1; Orn(4R-OH,5R-OH) = O=C([C@H](C[C@@H](O)[C@@H](O)N[*:3])N[*:1])[*:2]; Pro(3S-OH,4S-Me) = C[C@H]1CN[C@H](C(=O)O)[C@H]1O; X1 = CCCCCOc1ccc(-c2cc(-c3ccc(C(=O)*)cc3)no2)cc1; Gln(3R-OH) = NC(=O)C[C@@H](O)[C@H](N)C(=O)O; Hyp = O=C(O)[C@@H]1C[C@@H](O)CN1

Settings: rabbit model of neonatal HCME; highest concentrations within meninges and choroid; ref 2 (Hope et al.); cited from earlier work
Source text: In extremely low-birth-weight infants (<1 kg at birth) with invasive candidiasis, the probability of the central nervous system involvement during infection varies from 45% to 63% of cases. Micafungin concentration values in CSF are difficult to obtain if an external shunt has not been placed previously. Moreover, interpreting these values in vivo is not easy, considering that the fungal involvement of the central nervous system in neonatal age is typically hematogenous Candida meningoencephalitis (HCME). Hope et al. studied the pharmacokinetics and pharmacodynamics of micafungin in a r ...

Structure (SMILES): CCCCCOc1ccc(-c2cc(-c3ccc(C(=O)N[C@H]4C[C@@H](O)[C@@H](O)NC(=O)[C@@H]5[C@@H](O)[C@@H](C)CN5C(=O)[C@H]([C@H](O)CC(N)=O)NC(=O)[C@H]([C@H](O)[C@@H](O)c5ccc(O)c(OS(=O)(=O)O)c5)NC(=O)[C@@H]5C[C@@H](O)CN5C(=O)[C@H]([C@@H](C)O)NC4=O)cc3)no2)cc1 [micafungin] (X1-[Orn(4R-OH,5R-OH)]T[Hyp][hTyr(3S-OH,4S-OH,3'-OSO3H)][Gln(3R-OH)][Pro(3S-OH,4S-Me)]; lactam 1-C)
- Detection of micafungin within the CSF: not reliably detected
